The record followed here is ChEMBL document CHEMBL1130495, “Benzoylphenoxy analogs of isoprenoid diphosphates as photoactivatable substrates for bacterial prenyltransferases” (Bioorg Med Chem Lett, 1997).

Molecules are shown by their SMILES.

The subject of assay [1] is Geobacillus stearothermophilus. The assay is described as follows: Percent inhibition against prenyltransferases of Undecaprenyl pyrophosphate synthetase (UPS) at concentration of 32 uM.
Assay [2] is described as follows: Activity at concentration of 714 uM relative to FPS for 30 min. It is filed as functional.
Assay [3] in a line: Activity at concentration of 357 uM relative to FPS for 30 min. It is filed as functional.
The test system of assay [4] is Geobacillus stearothermophilus. The assay is described as follows: Percent inhibition against prenyltransferases of Undecaprenyl pyrophosphate synthetase (UPS) at concentration of 125 uM.
Assay [5] is described as follows: Activity as substrate for UPS relative to control. It is filed as functional.
The test system of assay [6] is Farnesyl pyrophosphate synthase (Geobacillus stearothermophilus). In words: Percent inhibition against prenyltransferases of farnesyl diphosphate synthase (FPS) at concentration of 125 uM.
The nature of assay [7]: Activity as substrate for Hex PS relative to control. It counts as functional.
Assay [8] in a line: Activity at concentration of 250 uM relative to HexPS for 15 min. It counts as functional.
The nature of assay [9]: Activity at concentration of 357 uM relative to FPS for 120 min. It is filed as functional.
A short description of assay [10]: Activity at concentration of 1428 uM relative to FPS for 30 min. It counts as functional.
In assay [11] the test system is Farnesyl pyrophosphate synthase (Geobacillus stearothermophilus). In words: Percent inhibition against prenyltransferases of farnesyl diphosphate synthase (FPS) at concentration of 250 uM.
Assay [12] can be described thus: Activity as substrate for FPS relative to control. It counts as functional.
In assay [13] the test system is Farnesyl pyrophosphate synthase (Geobacillus stearothermophilus). The assay is described as follows: Percent inhibition against prenyltransferases of farnesyl diphosphate synthase (FPS) at concentration of 50 uM.
Assay [14] relates to Geobacillus stearothermophilus. The assay is described as follows: Percent inhibition against prenyltransferases of Undecaprenyl pyrophosphate synthetase (UPS) at concentration of 16 uM.
The nature of assay [15]: Activity at concentration of 250 uM relative to HexPS for 5 min. It counts as functional.
The nature of assay [16]: Activity at concentration of 125 uM relative to HexPS for 15 min. It is filed as functional.
A short description of assay [17]: Activity at concentration of 357 uM relative to FPS for 60 min. It counts as functional.
Assay [18] relates to Micrococcus luteus. The assay is described as follows: Percent inhibition against prenyltransferases of hexaprenyl diphosphate synthase (Hex PS) at concentration of 250 uM.
The test system of assay [19] is Micrococcus luteus. In words: Percent inhibition against prenyltransferases of hexaprenyl diphosphate synthase (Hex PS) at concentration of 50 uM.
In assay [20] the test system is Micrococcus luteus. The assay is described as follows: Percent inhibition against prenyltransferases of hexaprenyl diphosphate synthase (Hex PS) at concentration of 125 uM.
A short description of assay [21]: Activity at concentration of 125 uM relative to HexPS for 5 min. It is filed as functional.
Assay [22] has as its system Farnesyl pyrophosphate synthase (Geobacillus stearothermophilus). In words: Percent inhibition against farnesyl diphosphate synthase (FPS) at concentration of 250 uM.

A word on the inhibition: it is the share of the control response that was lost under treatment. A low value points to a response near the control. As to `C/C(=C\COP(=O)(O)OP(=O)(O)O)CC/C=C(\C)COc1cccc(C(=O)c2ccccc2)c1`, the inhibition in assay [1] was determined as 58%; in [4], 63%; in [6], 94.9%; in assay [11], 96.1%; in assay [13] it was 86%; in [14], 38%. The inhibition with Micrococcus luteus [18] is 80.5%; in the assay on Micrococcus luteus [19], 9.2%; in the assay with Micrococcus luteus [20], 37%. For the same compound, the Relative activity in [2] turned out to be 61.2; in assay [3], 62.2; in assay [5], 55.7; in [7], 21.6; in [8] it was 1.9; in assay [9], 37. For the same compound, the Relative activity stood at 75.9 in assay [10]; 1.83 in [12]; 5.5 in assay [15]; 10.8 in assay [16]; 66.6 in assay [17]; 32.5 in assay [21].
`C/C(=C\COP(=O)(O)OP(=O)(O)O)CC/C=C(\C)COc1ccc(C(=O)c2ccccc2)cc1`: the inhibition came out at 53% in [1]; 63% in assay [4]; 94.4% in [6]; 95.5% in assay [11]; 84.4% in [13]; 29% in assay [14]. The inhibition in the assay with Micrococcus luteus [18] was 86.4%; in the assay with Micrococcus luteus [19], 14.4%; in the assay on Micrococcus luteus [20], 49.5%. Besides, the Relative activity in assay [2] turned out to be 64.4; in [3], 67.3; in assay [5], 49.1; in assay [7], 46.4; in assay [8], 4.3; in assay [9], 17. For the same compound, the Relative activity came to 36.2 in [10]; 0.78 in assay [12]; 9.8 in [15]; 9.2 in [16]; 48.1 in assay [17]; 30.7 in [21].
For `C/C(=C\COP(=O)(O)OP(=O)(O)O)COc1cccc(C(=O)c2ccccc2)c1`, the inhibition in assay [1] turned out to be 22.5%; in [4], 68%; in assay [6], 14.6%; in assay [22], 19.8%; in [14] it was 12.5%; in the assay on Micrococcus luteus [18] it was 10.6%. The inhibition in the assay with Micrococcus luteus [19] turned out to be 3.1%; in the assay with Micrococcus luteus [20] it was 3.5%. For the same compound, the Relative activity was 0 in assay [7] and 0.22 in [12].
Take `C/C(=C\COP(=O)(O)OP(=O)(O)O)COc1ccc(C(=O)c2ccccc2)cc1`: the inhibition was 17.5% in assay [1]; 57% in assay [4]; 24.5% in assay [6]; 27.6% in [11]; 12.5% in assay [14]; 37% with Micrococcus luteus [18]. In addition, the inhibition in the assay with Micrococcus luteus [19] was 8.8%; with Micrococcus luteus [20], 23.4%. Besides, the Relative activity in assay [7] stood at 5.7; in assay [12], 0.06.
